Experimental data reported in US9107936B2, “Antagonists of GRASP55 for use as a medicament” (Institut National de la Sante et de la Recherche Medicale …, priority 2012, dated 2015).

Tests used:
Assay type in all cases: binding, murine
[1] = target: T1, GST-PDZI′ (Grasp55 residues 1 to 107) (Mus musculus, UniProt Q99JX3); assay: HTRF measurement of interaction of biotinylated C-terminal peptides with GST-PDZI′; settings: biotinylated JAM-C peptide, GST-PDZI′
T1 construct: GST fusion proteins encompassing residues 1 to 107; made in house; host or cells: bacteria Rosetta
Procedure: (§1) To refine and extend the results obtained by yeast two hybrid, an Homogenous Time Resolved Fluorescence (HTRF) assay have been set-up to measure interactions of various peptides with recombinant GST proteins corresponding to different regions of Grasp55.
(§2) Briefly, the technique consisted in incubating 18 h at 4° C. the biotinylated-Cterminal peptides (SEQ ID NO: 26 to 34) at the concentration of 1.9*10^−7M with the GST-fusion protein, the terbium-coupled anti-GST antibody (8*10^−10M each) and the d2-coupled streptavidin (4*10^−8M) (both from Cisbio), in 0.1 mL of Hepes 0.05M, NaCl 0.15M BSA 0.1% pH 7.2. In some experiments, competing peptide or chemicals were added to the incubation mix at the indicated concentration. After incubation, microtiter plates (Costar #3693) were red using PolarScan Omega (BMG Labtech) equipped for HTRF measurements. Upon excitation at 320 nm, a 620 nm fluorescence emission is produced by the donor terbium that in turn excites a 665 nm light emission by a Streptavidin-d2 (acceptor) bound to the Biotinylated interacting Peptide if the latter is interacting with the donor. The […] R ratio is obtained and a Delta F is computed as: [(Rsample−RNSB)/RNSB]*100 where RNSB is the Non Specific Background signal determined in incubates where the GST-fusion protein was omitted.
(§3) Having shown that HTRF measurement of interaction is a reliable technology to identify inhibitors of interaction. A screen of a chemical compound library provided by MRCt has been initiated. The screening consisted in the same HTRF technique used in Example 7 except that compounds from the library were added in the incubation mix at the final concentration of 6.6×10^−5M. […] Since such a result could be either due to a specific inhibition of the JAM-C peptide interaction to the recombinant Grasp55 PDZ domains or to a non-specific inhibition of the FRET signal between donor and acceptor in HTRF technology, the twenty selected compounds have been further tested. Indeed, compounds could potentially interfere with the binding of the anti-GST antibody terbium-labeled to the GST of the fusion protein, the binding of Streptavidin-d2 to the biotinylated peptide or promote strong interference at 320, […] or 665 nm. Thus, the putative hits obtained were screened for non-specific inhibition. To this end, the GST-PDZI′+II′ recombinant protein was biotinylated using Sulfo-NHS Biotin according to manufacturer instructions (Pierce). This allows designing an HTRF assay in which the d2-coupled streptavidin (acceptor) and the terbium-coupled anti-GST antibody are directly bound to recombinant GST-PDZI′+II′ protein and produce DeltaF signal independently of the biotinylated peptide. The twenty selected compounds were thus tested in this assay to eliminate those giving false inhibition of the HTRF signals while inhibitors of Biotinylated peptide interaction with GST-PDZI′+II′ should not interfere in this assay.

[2] = target: T2, GST-GraspFL (GST-Grasp55 full length) (Mus musculus, UniProt Q99JX3); assay: HTRF competition with GST-Grasp55 full length; settings: biotinylated JAM-C peptide
T2 construct: GST-GraspFL (GST-Grasp55 full length); made in house; host or cells: bacteria Rosetta
Procedure: as §1
as §2, with “omitted. […]” for “omitted.”

[3] = target: T3, GST-PDZI′+II′ (Grasp55 residues 1 to 208) (Mus musculus, UniProt Q99JX3); assay: HTRF measurement of interaction of biotinylated C-terminal peptides with GST-PDZI′+II′; settings: biotinylated JAM-C peptide, GST-PDZI′+II′
T3 construct: and 1 to 208 corresponding respectively to the PDZI′, PDZII′ and PDZI′+II′ constructs; made in house; host or cells: bacteria Rosetta
Procedure: as §1, §2, §3

## NYIRTSEEGDFRHKSSFVI [unlabelled peptide]
[1]
  increase in EC50 with GST-PDZI′ versus GST-PDZI′+II′ and GST-GraspFL: twenty fold increase in EC50
[2]
  EC50 of competition of the HTRF signal: low micromolar range
[3]
  EC50 of competition of the HTRF signal: low micromolar range
